Measured values published in patent US20230117034A1, “PYRAZOLOTRIAZINES” (Bayer Aktiengesellschaft, priority 2019, published 2023).

Key:
[1] = system: BRCA1 mRNA expression in MDA-MB-231 cells; assay: qRT-PCR assay: BRCA1 mRNA expression in MDA-MB-231; type: cell-based, human; conditions: Homo sapiens, MDA-MB-231, Inhibition of BRCA1 mRNA expression in MDA-MB-231 cells; median; read-out: RTqPCR-MDA-MB-231, IC50, BRCA1 (median)
Procedure, shortened: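 MDA-MB-231 cells, 200,000/well, treated 24 h after plating with continuous 24 h compound exposure. RNA extracted, 600 ng reverse-transcribed, BRCA1 measured by RT-qPCR normalized to GAPDH.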

CDK12/CycK = CDK12/CycK (Homo sapiens, UniProt Q9NYV4); assay: CDK12/CycK high ATP kinase assay (TR-FRET, 2 mM ATP); type: biochemical; conditions: 2 mM ATP (high ATP); median; read-out: CDK12/CyclinK, 2 mM ATP (high ATP), IC50-[mol/l] (median)
Procedure, shortened: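 His-tagged human CDK12/CycK (~0.75 nM) pre-incubated 15 min with compound, then 60 min at 22 °C with 2 mM ATP and 1 µM biotinylated peptide (HEPES pH 7.5, 20 mM MgCl2). EDTA stop; phospho-Ser62 antibody/Eu anti-rabbit and streptavidin-XL665 TR-FRET, 665/620 nm ratio normalised to give IC50.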

Chain of CDK12/CycK (Q9NYV4 with tags, fused parts or gaps): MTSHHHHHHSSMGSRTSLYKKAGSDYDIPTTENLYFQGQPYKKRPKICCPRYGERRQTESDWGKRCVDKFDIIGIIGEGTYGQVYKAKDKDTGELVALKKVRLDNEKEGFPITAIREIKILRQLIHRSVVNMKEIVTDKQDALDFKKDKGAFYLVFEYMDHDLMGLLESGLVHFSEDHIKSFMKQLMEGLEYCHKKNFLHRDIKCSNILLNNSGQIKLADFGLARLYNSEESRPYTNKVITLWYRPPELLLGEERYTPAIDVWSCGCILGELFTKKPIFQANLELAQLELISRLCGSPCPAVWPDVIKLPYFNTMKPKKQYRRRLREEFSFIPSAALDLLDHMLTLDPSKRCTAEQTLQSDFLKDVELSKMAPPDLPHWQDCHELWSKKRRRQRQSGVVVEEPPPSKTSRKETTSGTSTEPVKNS
Chain of CDK12/CycK (O75909 1-300 partner limits assumed): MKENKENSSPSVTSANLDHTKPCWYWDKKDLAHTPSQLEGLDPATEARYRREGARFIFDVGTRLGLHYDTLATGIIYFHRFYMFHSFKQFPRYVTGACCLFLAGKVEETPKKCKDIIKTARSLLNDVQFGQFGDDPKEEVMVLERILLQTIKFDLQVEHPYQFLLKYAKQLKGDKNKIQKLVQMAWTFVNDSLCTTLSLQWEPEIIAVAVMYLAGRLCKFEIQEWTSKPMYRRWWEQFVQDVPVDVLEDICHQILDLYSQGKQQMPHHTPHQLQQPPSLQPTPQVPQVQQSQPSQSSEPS

| Compound | IC50 [1] | IC50 (CDK12/CycK) |
| --- | --- | --- |
| OCC1CCN1c1nc(NCc2nc3ccccc3[nH]2)n2ncc(Br)c2n1 (stereo not drawn) [Example 147, [1-[4-(1H-benzimidazol-2-ylmethylamino)-8-bromo-pyrazolo[1,5-a][1,3,5]triazin-2-yl]azetidin-2-yl]methanol] | 76.7 nM | 4970 nM |
| Cc1cccc2[nH]c(CNc3nc(N4CCOCC4)nc4c(Br)cnn34)nc12 [Example 150, 8-bromo-N-[(4-methyl-1H-benzimidazol-2-yl)methyl]-2-(morpholin-4-yl)pyrazolo[1,5-a][1,3,5]triazin-4-amine] | 13 nM | 2660 nM |
| Cc1cccc2[nH]c(CNc3nc(N4CCN(C)CC4)nc4c(Br)cnn34)nc12 [Example 151, 8-bromo-N-[(4-methyl-1H-benzimidazol-2-yl)methyl]-2-(4-methylpiperazin-1-yl)pyrazolo[1,5-a][1,3,5]triazin-4-amine] | 18.3 nM | 4240 nM |
| Fc1cccc(-c2nnc(CNc3nc(N4C[C@H]5C[C@@H]4CO5)nc4c(Br)cnn34)[nH]2)c1 [Example 153, 8-bromo-N-{[5-(3-fluorophenyl)-4H-1,2,4-triazol-3-yl]methyl}-2-[(1R,4R)-2-oxa-5-azabicyclo[2.2.1]heptan-5-yl]pyrazolo[1,5-a][1,3,5]triazin-4-amine] | 8.2 nM | 2950 nM |
| Cc1ccc2[nH]c(CNc3nc(N4CCOCC4)nc4c(Br)cnn34)nc2c1 [Example 157, 8-bromo-N-[(5-methyl-1H-benzimidazol-2-yl)methyl]-2-(morpholin-4-yl)pyrazolo[1,5-a][1,3,5]triazin-4-amine] | 0.903 nM | 676 nM |
| Cc1ccc2[nH]c(CNc3nc(N4CCN(C)CC4)nc4c(Br)cnn34)nc2c1 [Example 158, 8-bromo-N-[(5-methyl-1H-benzimidazol-2-yl)methyl]-2-(4-methylpiperazin-1-yl)pyrazolo[1,5-a][1,3,5]triazin-4-amine] | 0.883 nM | 4460 nM |
| CN1CCN(c2nc(NCc3nc4c(F)c(F)ccc4[nH]3)n3ncc(C4CC4)c3n2)CC1 [Example 159, 8-cyclopropyl-N-[(4,5-difluoro-1H-benzimidazol-2-yl)methyl]-2-(4-methylpiperazin-1-yl)pyrazolo[1,5-a][1,3,5]triazin-4-amine] | 1.68 nM | 9620 nM |
| Clc1ccc2[nH]c(CNc3nc(N4CCOCC4)nc4c(Br)cnn34)nc2c1 [Example 162, 8-bromo-N-[(5-chloro-1H-benzimidazol-2-yl)methyl]-2-(morpholin-4-yl)pyrazolo[1,5-a][1,3,5]triazin-4-amine] | 1.09 nM | 1020 nM |
| CN1CCN(c2nc(NCc3nc4cc(Cl)ccc4[nH]3)n3ncc(Br)c3n2)CC1 [Example 163, 8-bromo-N-[(5-chloro-1H-benzimidazol-2-yl)methyl]-2-(4-methylpiperazin-1-yl)pyrazolo[1,5-a][1,3,5]triazin-4-amine] | 1.03 nM | > 5710 nM |
| CN1CCN(c2nc(NCc3nc4c(F)cccc4[nH]3)n3ncc(C4CC4)c3n2)CC1 [Example 165, 8-cyclopropyl-N-[(4-fluoro-1H-benzimidazol-2-yl)methyl]-2-(4-methylpiperazin-1-yl)pyrazolo[1,5-a][1,3,5]triazin-4-amine] | 2.35 nM | 10200 nM |
| O=S1(=O)CCN(c2nc(NCc3nc4ccccc4[nH]3)n3ncc(Br)c3n2)CC1 [Example 166, 4-(4-{[(1H-benzimidazol-2-yl)methyl]amino}-8-bromopyrazolo[1,5-a][1,3,5]triazin-2-yl)-1 lambda^6-thiomorpholine-1,1-dione] | 46.2 nM | 6090 nM |

The remaining lines, values ahead:

| IC50 [1] | IC50 (CDK12/CycK) | Compound |
| --- | --- | --- |
| 87.6 nM | 10800 nM | Brc1cnn2c(NCc3nc4ccccc4[nH]3)nc(N3CCN4CCC[C@H]4C3)nc12 [Example 148, N-[(1H-benzimidazol-2-yl)methyl]-8-bromo-2-[(8aS)-hexahydropyrrolo[1,2-a]pyrazin-2 (1 H)-yl]pyrazolo[1,5-a][1,3,5]triazin-4-amine] |
| 148 nM | 6220 nM | Brc1cnn2c(NCc3nc4ccccc4[nH]3)nc(N3CCN4CCC[C@@H]4C3)nc12 [Example 149, N-[(1H-benzimidazol-2-yl)methyl]-8-bromo-2-[(8aR)-hexahydropyrrolo[1,2-a]pyrazin-2 (1 H)-yl]pyrazolo[1,5-a][1,3,5]triazin-4-amine] |
| 4.25 nM | 2990 nM | Fc1cccc(-c2nnc(CNc3nc(N4CCNCC4)nc4c(Br)cnn34)[nH]2)c1 [Example 152, 8-bromo-N-{[5-(3-fluorophenyl)-4H-1,2,4-triazol-3-yl]methyl}-2-(piperazin-1-yl)pyrazolo[1,5-a][1,3,5]triazin-4-amine] |
| 7.04 nM | 7170 nM | C[C@H]1CN(c2nc(NCc3nnc(-c4cccc(F)c4)[nH]3)n3ncc(Br)c3n2)CCN1C [Example 154, 8-bromo-2-[(3S)-3,4-dimethylpiperazin-1-yl]-N-{[5-(3-fluorophenyl)-4H-1,2,4-triazol-3-yl]methyl}pyrazolo[1,5-a][1,3,5]triazin-4-amine] |
| 2.95 nM | 1240 nM | COc1ccc2[nH]c(CNc3nc(N4CCOCC4)nc4c(Br)cnn34)nc2c1 [Example 160, 8-bromo-N-[(5-methoxy-1H-benzimidazol-2-yl)methyl]-2-(morpholin-4-yl)pyrazolo[1,5-a][1,3,5]triazin-4-amine] |
| 2.53 nM | 9610 nM | COc1ccc2[nH]c(CNc3nc(N4CCN(C)CC4)nc4c(Br)cnn34)nc2c1 [Example 161, 8-bromo-N-[(5-methoxy-1H-benzimidazol-2-yl)methyl]-2-(4-methylpiperazin-1-yl)pyrazolo[1,5-a][1,3,5]triazin-4-amine] |
| 2.55 nM | > 20000 nM | CN1CCN(c2nc(NCc3nc4cc(F)ccc4[nH]3)n3ncc(C4CC4)c3n2)CC1 [Example 164, 8-cyclopropyl-N-[(5-fluoro-1H-benzimidazol-2-yl)methyl]-2-(4-methylpiperazin-1-yl)pyrazolo[1,5-a][1,3,5]triazin-4-amine] |
